# Residues, ends and D or L forms follow the SMILES beside them. *: point of attachment. DOTA = O=C(O)CN1CCN(CC(=O)O)CCN(CC(=O)*)CCN(CC(=O)O)CC1; X1 = Cc1ccc(CCCC(=O)NCCOCCOCCOCCOCC(=O)*)cc1; βAla = NCCC(=O)O
# Assays:
# [1] = system: NTS1R-positive AsPC-1 xenografts; assay: in vivo; parameters: species or system mice; conditions: male, SCID, mouse, iv
# Protocol: (§1) The distribution of [^67Ga]Ga/[^111In]In/[^177Lu]Lu-DT14D was investigated in male severe combined immunodeficiency (SCID) mice (49 mice in total, 6 weeks of age on arrival date, 22 ± 4 g, NCSR “Demokritos” Animal House, Athens, Greece) bearing NTS1R-positive AsPC-1 xenografts in their flanks. For xenograft induction, suspensions of freshly harvested AsPC-1 cells (5 × 10^6 cells in 150 µL sterile PBS) were subcutaneously injected into the mice’s flanks. The animals were kept under aseptic conditions and 4 weeks later developed well palpable masses at the inoculation sites (100 ± 50 mg) and biodistribution was conducted. On the day of the experiment, the animals received a bolus (100 μL, in vehicle: saline/EtOH 9/1 v/v) containing the radioligand via the tail vein. The following groups of four animals per time point, per treatment, were included per radioligand (the 4 h block groups comprised 3 animals instead) including the respective (radio)ligand amounts injected: i. 78–91 kBq [^67Ga]Ga-DT14D corresponding to 7–17 pmol DT14D at 1 and 4 h pi plus 4 h block (coinjection with 100 µg NT); ii. 74–92 kBq [^111In]In-DT14D corresponding to 20–25 pmol at 4 h (controls), 4 h pi (Entresto®; animals receiving a slurry of 12 mg/200 µL Entresto® oral gavage 30 min in advance) and 4 h block (coinjection with 100 µg NT); 24 h pi (including both controls and Entresto® mice groups); and iii. 730 kBq [^177Lu]Lu-DT14D corresponding to 40 pmol DT14D at 4, 24, 48, and 72 h pi plus 4 h block (co-injection with 100 µg NT). The animals were euthanized at predetermined time intervals, dissected and blood samples, organs of interest, and tumors were collected, weighed, and counted in the gamma counter. Biodistribution data were calculated as percent of the injected activity per gram tissue (%IA/g) with the aid of suitable standards of the administered activity. Results as the mean %IA/g values ± sd were obtained and statistical analysis was performed with PRISM^TM GraphPad—10.2 Software (San Diego, CA/USA), applying 2-way ANOVA with Tukey’s post hoc analysis, or, in the case of two variables, Šídák’s multiple comparisons test was adopted; differences with p < 0.05 were considered as statistically significant.
# in vivo = assay: in vivo; parameters: species or system mice; conditions: male, SCID, mouse, iv, total radioactivity
# Protocol: as §1
compound,measurement,setting,value
CC[C@H](C)[C@H](NC(=O)[C@H](Cc1ccc(O)cc1)NC(=O)[C@@H]1CCCN1C(=O)[C@H](CCCNC(=N)N)NC(=O)[C@H](CCCNC(=N)N)NC(=O)[C@H](CCCCNC(=O)COCCOCCOCCOCCNC(=O)CCCc1ccc(C)cc1)NC(=O)CCNC(=O)CCNC(=O)CCNC(=O)CN1CCN(CC(=O)O)CCN(CC(=O)O)CCN(CC(=O)O)CC1)C(=O)N[C@@H](CC(C)C)C(=O)O [[^67Ga]Ga-DT14D] [metal not drawn] ({DOTA-βAla-βAla-βAla}-K(X1)RRPYIL-OH),"Biodistribution, Blood",[1]; 4 h,2.15 ± 0.40 %IA/g
same,"Biodistribution, Femur",[1]; 4 h,1.67 ± 0.36 %IA/g
same,"Biodistribution, Heart",[1]; 4 h,0.76 ± 0.12 %IA/g
same,"Biodistribution, Intestines",[1]; 4 h,2.32 ± 0.39 %IA/g
same,"Biodistribution, Kidneys",[1]; 4 h,3.87 ± 0.96 %IA/g
same,"Biodistribution, Liver",[1]; 4 h,3.44 ± 0.15 %IA/g
same,"Biodistribution, Lungs",[1]; 4 h,1.34 ± 0.20 %IA/g
same,"Biodistribution, Muscle",[1]; 4 h,0.27 ± 0.04 %IA/g
same,"Biodistribution, Pancreas",[1]; 4 h,0.51 ± 0.08 %IA/g
same,"Biodistribution, Spleen",[1]; 4 h,1.75 ± 0.67 %IA/g
same,Tumor/Blood ratio,[1]; 4 h,2.06 ± 0.21
same,Tumor/Heart ratio,[1]; 4 h,5.75 ± 0.17
same,Tumor/Intestines ratio,[1]; 4 h,1.89 ± 0.06
same,Tumor/Liver ratio,[1]; 4 h,1.28 ± 0.24
same,Tumor/Muscle ratio,[1]; 4 h,16.50 ± 2.36
same,Tumor/Pancreas ratio,[1]; 4 h,8.69 ± 0.52
same,Tumor/Spleen ratio,[1]; 4 h,2.50 ± 0.23
CC[C@H](C)[C@H](NC(=O)[C@H](Cc1ccc(O)cc1)NC(=O)[C@@H]1CCCN1C(=O)[C@H](CCCNC(=N)N)NC(=O)[C@H](CCCNC(=N)N)NC(=O)[C@H](CCCCNC(=O)COCCOCCOCCOCCNC(=O)CCCc1ccc(C)cc1)NC(=O)CCNC(=O)CCNC(=O)CCNC(=O)CN1CCN(CC(=O)O)CCN(CC(=O)O)CCN(CC(=O)O)CC1)C(=O)N[C@@H](CC(C)C)C(=O)O [[^111In]In-DT14D] [metal not drawn] ({DOTA-βAla-βAla-βAla}-K(X1)RRPYIL-OH),"Biodistribution, Blood",[1]; 4 h,0.66 ± 0.19 %IA/g
same,"Biodistribution, Femur",[1]; 4 h,0.50 ± 0.06 %IA/g
same,"Biodistribution, Heart",[1]; 4 h,0.28 ± 0.06 %IA/g
same,"Biodistribution, Intestines",[1]; 4 h,1.34 ± 0.06 %IA/g
same,"Biodistribution, Liver",[1]; 4 h,0.45 ± 0.04 %IA/g
same,"Biodistribution, Lungs",[1]; 4 h,0.79 ± 0.12 %IA/g
same,"Biodistribution, Muscle",[1]; 4 h,0.13 ± 0.03 %IA/g
same,"Biodistribution, Pancreas",[1]; 4 h,0.24 ± 0.04 %IA/g
same,"Biodistribution, Spleen",[1]; 4 h,0.84 ± 0.07 %IA/g
same,"Biodistribution, Stomach",[1]; 4 h,0.39 ± 0.05 %IA/g
same,"Biodistribution, Blood",[1]; 24 h,0.46 ± 0.08 %IA/g
same,"Biodistribution, Femur",[1]; 24 h,1.35 ± 0.36 %IA/g
same,"Biodistribution, Heart",[1]; 24 h,0.62 ± 0.23 %IA/g
same,"Biodistribution, Intestines",[1]; 24 h,0.69 ± 0.09 %IA/g
same,"Biodistribution, Liver",[1]; 24 h,0.33 ± 0.08 %IA/g
same,"Biodistribution, Lungs",[1]; 24 h,0.61 ± 0.09 %IA/g
same,"Biodistribution, Muscle",[1]; 24 h,0.40 ± 0.10 %IA/g
same,"Biodistribution, Pancreas",[1]; 24 h,0.63 ± 0.39 %IA/g
same,"Biodistribution, Spleen",[1]; 24 h,1.59 ± 0.14 %IA/g
same,"Biodistribution, Stomach",[1]; 24 h,0.27 ± 0.10 %IA/g
same,Tumor/Intestines ratio,[1]; 24 h,3.16 ± 0.49
same,Tumor/Kidneys ratio,[1]; 24 h,1.42 ± 0.25
same,Tumor/Spleen ratio,[1]; 24 h,1.84 ± 0.15
CC[C@H](C)[C@H](NC(=O)[C@H](Cc1ccc(O)cc1)NC(=O)[C@@H]1CCCN1C(=O)[C@H](CCCNC(=N)N)NC(=O)[C@H](CCCNC(=N)N)NC(=O)[C@H](CCCCNC(=O)COCCOCCOCCOCCNC(=O)CCCc1ccc(C)cc1)NC(=O)CCNC(=O)CCNC(=O)CCNC(=O)CN1CCN(CC(=O)O)CCN(CC(=O)O)CCN(CC(=O)O)CC1)C(=O)N[C@@H](CC(C)C)C(=O)O [[^177Lu]Lu-DT14D] [metal not drawn] ({DOTA-βAla-βAla-βAla}-K(X1)RRPYIL-OH),"Biodistribution, Blood",[1]; 4 h,0.72 ± 0.19 %IA/g
same,"Biodistribution, Femur",[1]; 4 h,0.45 ± 0.06 %IA/g
same,"Biodistribution, Heart",[1]; 4 h,0.32 ± 0.09 %IA/g
same,"Biodistribution, Intestines",[1]; 4 h,1.27 ± 0.14 %IA/g
same,"Biodistribution, Kidneys",[1]; 4 h,3.24 ± 0.20 %IA/g
same,"Biodistribution, Liver",[1]; 4 h,1.34 ± 0.14 %IA/g
same,"Biodistribution, Lungs",[1]; 4 h,1.63 ± 0.86 %IA/g
same,"Biodistribution, Muscle",[1]; 4 h,0.11 ± 0.02 %IA/g
same,"Biodistribution, Pancreas",[1]; 4 h,0.21 ± 0.03 %IA/g
same,"Biodistribution, Spleen",[1]; 4 h,1.36 ± 0.37 %IA/g
same,"Biodistribution, Stomach",[1]; 4 h,0.33 ± 0.12 %IA/g
same,Tumor/Blood ratio,[1]; 4 h,5.51± 1.56
same,Tumor/Heart ratio,[1]; 4 h,12.36 ± 3.08
same,Tumor/Intestines ratio,[1]; 4 h,2.99 ± 0.57
same,Tumor/Kidneys ratio,[1]; 4 h,1.17 ± 0.15
same,Tumor/Liver ratio,[1]; 4 h,2.83 ± 0.45
same,Tumor/Lungs ratio,[1]; 4 h,2.97 ± 1.75
same,Tumor/Muscle ratio,[1]; 4 h,34.86 ± 6.98
same,Tumor/Pancreas ratio,[1]; 4 h,18.16 ± 3.31
same,Tumor/Spleen ratio,[1]; 4 h,2.83 ± 0.35
same,Tumor/Stomach ratio,[1]; 4 h,12.29 ± 3.81
same,"Biodistribution, Femur",[1]; 24 h,0.34 ± 0.03 %IA/g
same,"Biodistribution, Intestines",[1]; 24 h,0.45 ± 0.03 %IA/g
same,"Biodistribution, Liver",[1]; 24 h,1.18 ± 0.18 %IA/g
same,"Biodistribution, Lungs",[1]; 24 h,0.17 ± 0.01 %IA/g
same,"Biodistribution, Muscle",[1]; 24 h,0.03 ± 0.00 %IA/g
same,"Biodistribution, Spleen",[1]; 24 h,1.06 ± 0.16 %IA/g
same,Tumor/Blood ratio,[1]; 24 h,33.51 ± 2.94
same,Tumor/Heart ratio,[1]; 24 h,25.00 ± 3.78
same,Tumor/Intestines ratio,[1]; 24 h,3.95 ± 0.39
same,Tumor/Kidneys ratio,[1]; 24 h,1.46 ± 0.33
same,Tumor/Liver ratio,[1]; 24 h,1.54 ± 0.32
same,Tumor/Lungs ratio,[1]; 24 h,9.32 ± 2.56
same,Tumor/Muscle ratio,[1]; 24 h,58.07 ± 8.34
same,Tumor/Pancreas ratio,[1]; 24 h,22.31 ± 1.64
same,Tumor/Spleen ratio,[1]; 24 h,1.70 ± 0.32
same,Tumor/Stomach ratio,[1]; 24 h,31.97 ± 8.07
"CC[C@H](C)[C@H](NC(=O)[C@H](Cc1ccc(O)cc1)NC(=O)[C@@H]1CCCN1C(=O)[C@H](CCCNC(=N)N)NC(=O)[C@H](CCCNC(=N)N)NC(=O)[C@H](CCCCNC(=O)COCCOCCOCCOCCNC(=O)CCCc1ccc(C)cc1)NC(=O)CCNC(=O)CCNC(=O)CCNC(=O)CN1CCN(CC(=O)O)CCN(CC(=O)O)CCN(CC(=O)O)CC1)C(=O)N[C@@H](CC(C)C)C(=O)O [[^67Ga]Ga-DT14D, metal not drawn] ({DOTA-βAla-βAla-βAla}-K(X1)RRPYIL-OH)",tissue uptake at 1 h,"in vivo; Biodistribution, AsPC-1 Tumor",11.4 ± 1.25 %ID/g
same,tissue uptake at 1 h,"in vivo; Biodistribution, Blood",9.52 ± 0.76 %ID/g
same,tissue uptake at 1 h,"in vivo; Biodistribution, Femur",2.24 ± 0.23 %ID/g
same,tissue uptake at 1 h,"in vivo; Biodistribution, Heart",2.86 ± 0.16 %ID/g
same,tissue uptake at 1 h,"in vivo; Biodistribution, Intestines",2.81 ± 0.53 %ID/g
same,tissue uptake at 1 h,"in vivo; Biodistribution, Kidneys",7.1 ± 1.12 %ID/g
same,tissue uptake at 1 h,"in vivo; Biodistribution, Liver",3.74 ± 0.37 %ID/g
same,tissue uptake at 1 h,"in vivo; Biodistribution, Lungs",4.31 ± 0.28 %ID/g
same,tissue uptake at 1 h,"in vivo; Biodistribution, Muscle",1.14 ± 0.15 %ID/g
same,tissue uptake at 1 h,"in vivo; Biodistribution, Pancreas",1.41 ± 0.12 %ID/g
same,tissue uptake at 1 h,"in vivo; Biodistribution, Spleen",2.86 ± 0.33 %ID/g
same,tissue uptake at 1 h,"in vivo; Biodistribution, Stomach",0.97 ± 0.27 %ID/g
same,tissue uptake at 4 h,"in vivo; Biodistribution, Stomach",0.45 ± 0.08 %ID/g
same,tissue to tissue ratio at 1 h,in vivo; Tumor/Blood ratio,1.2 ± 0.06
same,tissue to tissue ratio at 1 h,in vivo; Tumor/Heart ratio,3.99 ± 0.24
same,tissue to tissue ratio at 1 h,in vivo; Tumor/Intestines ratio,4.12 ± 0.52
same,tissue to tissue ratio at 1 h,in vivo; Tumor/Kidneys ratio,1.62 ± 0.13
same,tissue to tissue ratio at 4 h,in vivo; Tumor/Kidneys ratio,1.15 ± 0.12
same,tissue to tissue ratio at 1 h,in vivo; Tumor/Liver ratio,3.05 ± 0.19
same,tissue to tissue ratio at 1 h,in vivo; Tumor/Lungs ratio,2.64 ± 0.15
same,tissue to tissue ratio at 4 h,in vivo; Tumor/Lungs ratio,3.28 ± 0.21
same,tissue to tissue ratio at 1 h,in vivo; Tumor/Muscle ratio,10.1 ± 1.09
same,tissue to tissue ratio at 1 h,in vivo; Tumor/Pancreas ratio,8.09 ± 0.24
same,tissue to tissue ratio at 1 h,in vivo; Tumor/Spleen ratio,4 ± 0.08
same,tissue to tissue ratio at 1 h,in vivo; Tumor/Stomach ratio,12.2 ± 2.71
same,tissue to tissue ratio at 4 h,in vivo; Tumor/Stomach ratio,9.96 ± 1.68

# From article PMC11944670, “Reshaping [^99mTc]Tc-DT11 to DT14D Tagged with Trivalent Radiometals for NTS1R-Positive Cancer Theranostics” (Pharmaceutics, 2025)
